Experimental findings from ChEMBL document CHEMBL3758172, “Design and synthesis of fluorescent and biotin tagged probes for the study of molecular actions of FAF1 inhibitor” (Bioorg Med Chem Lett, 2016) are described below.

Active and inactive are the calls of the source. No cut-off for these calls is given here.

Test [1] concerns the target T1, FAS-associated factor 1 (Homo sapiens) (UniProt Q9UNN5).
T1 sequence (whole entry): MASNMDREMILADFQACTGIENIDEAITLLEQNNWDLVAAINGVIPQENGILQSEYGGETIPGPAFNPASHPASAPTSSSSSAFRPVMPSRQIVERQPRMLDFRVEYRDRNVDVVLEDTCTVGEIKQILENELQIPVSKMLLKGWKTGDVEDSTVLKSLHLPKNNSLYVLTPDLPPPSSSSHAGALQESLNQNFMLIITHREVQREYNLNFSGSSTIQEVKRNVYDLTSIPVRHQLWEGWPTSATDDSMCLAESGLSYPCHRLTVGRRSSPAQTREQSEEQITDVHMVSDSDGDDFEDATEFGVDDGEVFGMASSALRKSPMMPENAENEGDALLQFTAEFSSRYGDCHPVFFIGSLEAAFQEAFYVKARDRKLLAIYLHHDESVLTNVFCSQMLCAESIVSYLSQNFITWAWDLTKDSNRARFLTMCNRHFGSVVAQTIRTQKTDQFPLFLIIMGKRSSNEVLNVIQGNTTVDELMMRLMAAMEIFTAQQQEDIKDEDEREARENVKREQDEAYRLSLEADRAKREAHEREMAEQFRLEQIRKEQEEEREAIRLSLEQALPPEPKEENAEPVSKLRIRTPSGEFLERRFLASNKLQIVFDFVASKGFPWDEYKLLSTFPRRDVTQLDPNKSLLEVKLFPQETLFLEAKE
In words: Binding affinity to FLAG-tagged FAF1 (unknown origin) expressed in H2O2-treated human SH-SY5Y cells at 100 uM after 12 hrs by immunoblot analysis. The format is cell-based.

The subject of test [2] is SH-SY5Y. In words: Inhibition of ischemic cell death in human SH-SY5Y cells assessed as cell viability pretreated for 30 mins followed by addition of 500 uM H2O2 measured after 6 hrs by MTS assay. Format: functional, cell-based. A general note: Tetrazolium assays rely on reduction of a dye to a coloured formazan, in cell work by metabolically active cells.
Test [3] concerns SH-SY5Y. In words: Inhibition of ischemic cell death in human SH-SY5Y cells assessed as LDH release at 20 uM pretreated for 30 mins followed by addition of 500 uM H2O2 measured after 6 hrs. The format is functional, cell-based. (In general: LDH in the medium is a marker of cell lysis.)
The target in test [4] is T1, FAS-associated factor 1 (Homo sapiens). In words: Binding affinity to FLAG-tagged FAF1 (unknown origin) expressed in H2O2-treated human SH-SY5Y cells after 12 hrs by immunoblot analysis. Format: cell-based. For orientation: In western blotting, separated proteins are transferred to a membrane and probed.

For the compound `O=C(CCCC[C@@H]1SC[C@@H]2NC(=O)N[C@@H]21)NCCCCOc1ccc(CCn2cc(NC(=O)CSc3ccc(Br)cc3)c(C(=O)O)n2)cc1`, the inhibition entry (in test [1]; in the test on SH-SY5Y [2]; in the test with SH-SY5Y [3]) was “Active” throughout.
For the compound `O=C(CSc1ccc(Br)cc1)Nc1cn(CCc2ccccc2)nc1C(=O)O`, the inhibition entry in the test with SH-SY5Y [2] and with SH-SY5Y [3] was “Active” in each case.
With `CN(C)c1cccc2c(S(=O)(=O)NCCCCOc3ccc(CCn4cc(NC(=O)CSc5ccc(Br)cc5)c(C(=O)O)n4)cc3)cccc12`, the inhibition entry (in the test with SH-SY5Y [2]; in the test with SH-SY5Y [3]; in test [4]) was “Active” throughout.
